This is an account of results in patent publication US5795907A, “Gastin and CCK receptor ligands” (James Black Foundation Limited, priority 1994, dated 1998).

For one assay, the target named is T1, CCKA (Cavia porcellus, UniProt Q63931).
T1 construct: The pancreatata were homogenised in 40 ml ice-cold HEPES buffer using a polytron; from tissue; host or cells: pancreas membranes of male Dunkin Hartley guinea-pigs
T1 sequence (Q63931 1-430): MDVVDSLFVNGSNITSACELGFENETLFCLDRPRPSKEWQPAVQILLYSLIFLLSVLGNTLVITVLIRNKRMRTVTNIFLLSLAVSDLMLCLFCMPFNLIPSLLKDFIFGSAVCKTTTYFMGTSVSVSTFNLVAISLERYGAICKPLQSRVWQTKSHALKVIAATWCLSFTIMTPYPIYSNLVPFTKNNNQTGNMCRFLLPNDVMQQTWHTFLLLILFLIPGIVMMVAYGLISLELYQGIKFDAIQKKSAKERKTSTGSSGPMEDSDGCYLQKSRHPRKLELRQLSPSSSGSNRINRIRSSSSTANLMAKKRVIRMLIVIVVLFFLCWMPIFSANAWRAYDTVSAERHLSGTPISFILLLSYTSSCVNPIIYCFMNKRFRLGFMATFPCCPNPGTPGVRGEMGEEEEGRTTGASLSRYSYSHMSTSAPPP
In words: CCKA radioligand binding assay in guinea-pig pancreas membranes ([125I]-CCK8(S)). To be noted: PD134,308 present, 150 minutes at 21±3°; for Ki: read-out: CCKA pKi (converted). Here is the method:
The compounds of the examples were also tested in a CCKA as follows:
The pancreatata were removed from male guinea-pigs (200-300 g; Dunkin Hartley) and placed in ice-cold HEPES buffer (pH 7.2 @ 21 ±3). The pancreatata were homogenised in 40 ml ice-cold HEPES buffer using a polytron (Brinkmann, PT10, setting 10) 4×1 second. The homogenate was centrifuged at 39,800 g for 15 min at 4°. The supernatant was discarded and the pellet re-suspended using a Teflon-in-glass homogeniser in 20 volumes of fresh buffer and re-centrifuged as above.
The final pellet was re-suspended using a Teflon-in-glass homogeniser to a tissue concentration of 1 mg.ml^-1 (original wet weight), and filtered through 500 μm pore-size Nytex mesh.
The membranes (400 μl; containing 0.375 μM PD134,308) are incubated for 150 minutes at 21±3° in a final volume of 0.5 ml with HEPES buffer containing [^125 I]-CCK8 (S) (50 μl; […]) and competing compound. Total and non-specific binding of [^125 I]-CCK8 (S) are defined using 50 μl of buffer and 50 μl of 100 nM L-364,718 respectively. The assay is terminated by rapid filtration through pre-soaked Whatman GF/B filters using a Brandell Cell Harvester. The filters were washed (3×3 ml) with ice-cold 50 mM Tris HCl (pH 7.4 at 4°) and bound radioactivity is determined by counting (1 min) in a gamma counter.

The target of a further assay is T2, CCKB receptor (Mus musculus, UniProt P56481).
T2 construct: The cortex was dissected, weighed and homogenised in 40ml ice-cold buffer; tissue Charles River (supplier of the CD1 mice); host or cells: cerebral cortex membranes of male CD1 mice
T2 sequence (P56481 1-453): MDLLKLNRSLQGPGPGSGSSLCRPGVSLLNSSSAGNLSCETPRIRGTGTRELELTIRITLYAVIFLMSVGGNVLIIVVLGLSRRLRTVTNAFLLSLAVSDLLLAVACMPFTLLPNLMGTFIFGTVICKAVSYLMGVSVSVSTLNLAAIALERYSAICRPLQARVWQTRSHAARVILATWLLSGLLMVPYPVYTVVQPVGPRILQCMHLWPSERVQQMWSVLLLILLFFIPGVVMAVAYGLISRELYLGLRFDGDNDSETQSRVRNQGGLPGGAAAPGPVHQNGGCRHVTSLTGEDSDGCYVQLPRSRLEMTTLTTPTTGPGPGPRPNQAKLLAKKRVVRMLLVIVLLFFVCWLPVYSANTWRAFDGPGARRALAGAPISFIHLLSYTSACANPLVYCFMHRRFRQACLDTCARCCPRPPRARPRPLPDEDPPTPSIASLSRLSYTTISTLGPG
Briefly: CCKB receptor radioligand binding assay in mouse cortical membranes ([125I]-CCK8S). The following applies: [125I]-CCK8S 200 pM, 150 min at 21±3°; for Ki: read-out: CCKB pKi (converted). Here is the method: The compounds of the examples were tested for binding at the CCKB receptor in mouse cortical membranes by means of a radioligand binding assay. The procedure was as follows:
The whole brains from male mice (CD1 22-25 g; Charles River) were removed and placed in ice-cold buffer (pH7.2 @ 21±3°) of the following composition (mM); 10 HEPES, 130 NaCl, 4.7 KCl, 5 MgCl2, 1 EDTA and containing 0.25g.^-1 bacitracin. The cortex was dissected, weighed and homogenised in 40ml ice-cold buffer using a Teflon-in-glass homogeniser. The homogenate was centrifuged at 39,800g for 20 min at 4°, the supernatant discarded and the pellet resuspended by homogenisation in fresh buffer. The homogenate was recentrifuged (39,800 g; 20 min @ 4°) and the final pellet was resuspended in HEPES buffer to give a tissue concentration of 2 mg.ml^-1 (original wet weight).
The membranes ([…]) were incubated for 150 min at 21±3° in a final volume of 0.5 ml with HEPES buffer containing [^125 I]-CCK8S (0.05 ml; 200 pM NEN 2200 Ci.mmol^-1) and competing compound. Total and non-specific binding of [^125 I]-CCK8S were defined using 0.05 ml of buffer and 0.05 ml of […] L-365,260, respectively. The assay was terminated by rapid filtration through pre-soaked Whatman GF/B filters using a Brandell Cell harvester. The filters were washed (3×3 ml) with ice-cold 50 mM Tris-HCl (pH7.4 @ 4° C.) and bound radioactivity determined by counting (1 min.) in a gamma-counter.

For the compound `O=C(NCC12CC3CC(CC(C3)C1)C2)c1cc2[nH]ccc2cc1C(=O)N[C@@H](Cc1ccccc1F)C(=O)Nc1cc(-c2nn[nH]n2)cc(-c2nn[nH]n2)c1` [Example 97, 5-(1S-(3,5-ditetrazolylphenylaminocarbonyl)-2-(2-fluorophenyl)ethylaminocarbonyl)-6-(1-adamantanemethylaminocarbonyl)-indole], the Ki at CCKA was 501 nM; on CCKB receptor it was 0.794 nM.

Regarding `O=C(NCC12CC3CC(CC(C3)C1)C2)c1cc2cc[nH]c2cc1C(=O)N[C@@H](Cc1ccccc1F)C(=O)Nc1cc(-c2nn[nH]n2)cc(-c2nn[nH]n2)c1` [Example 98, 6-(1S-(3,5-ditetrazolylphenylaminocarbonyl)-2-(2-fluorophenyl)ethylaminocarbonyl)-5-(1-adamantanemethylaminocarbonyl)-indole], the Ki is 200 nM on CCKA and 3.98 nM at CCKB receptor.

`O=C(NCC12CC3CC(CC(C3)C1)C2)c1cc2[nH]ccc2cc1C(=O)N[C@@H](Cc1ccccc1)C(=O)Nc1cccc(S(=O)(=O)NC(=O)C(F)(F)F)c1` [Example 99, 5-(1S-(3-trifluoroacetylaminosulphonylphenylaminocarbonyl)-2-phenylethylaminocarbonyl)-6-(1-adamantanemethylaminocarbonyl)-indole]: at CCKA, the “CCKA pKi” value was 5.4. At CCKB receptor, the “CCKB pKi” value is on record as 8.4.

Take `O=C(NCC12CC3CC(CC(C3)C1)C2)c1cc2cc[nH]c2cc1C(=O)N[C@@H](Cc1ccccc1)C(=O)Nc1cccc(-c2nn[nH]n2)c1` [Example 101, 6-(1S-(3-tetrazolylphenylaminocarbonyl)-2-phenylethylaminocarbonyl)-5-(1-adamantanemethylaminocarbonyl)-indole]: the figures for the Ki at CCKA and at CCKB receptor were 251 nM and 39.8 nM, respectively.

Consider `O=C(NCC12CC3CC(CC(C3)C1)C2)c1cc2[nH]ccc2cc1C(=O)N[C@@H](Cc1ccccc1)C(=O)Nc1cccc(NS(=O)(=O)C(F)(F)F)c1` [Example 102, 5-(1S-(3-trifluoromethylsulphonylaminophenylaminocarbonyl)-2-phenylethylaminocarbonyl)-6-(1-adamantanemethylaminocarbonyl)-indole], for which the “CCKA pKi” value at CCKA is 5.9. Moreover, the “CCKB pKi” value at CCKB receptor was 7.4.

With `Cc1nc2cc(C(=O)NCC34CC5CC(CC(C5)C3)C4)c(C(=O)N[C@@H](Cc3ccccc3)C(=O)Nc3cc(C(=O)O)cc(C(=O)O)c3)cc2[nH]1` [Example 111, 5-(1S-(3,5-dicarboxyphenylaminocarbonyl)-2-phenylethylaminocarbonyl)-6-(1-adamantanemethylaminocarbonyl)-2-methylbenzimidazole], the results for the Ki on CCKA and on CCKB receptor were more than 10000 nM and 1580 nM, respectively.

On to `CCCCc1nc2cc(C(=O)NCC34CC5CC(CC(C5)C3)C4)c(C(=O)N[C@@H](Cc3ccccc3)C(=O)Nc3cc(C(=O)O)cc(C(=O)O)c3)cc2[nH]1` [Example 114, 5-(1S-(3,5-dicarboxyphenylaminocarbonyl)-2-phenylethylaminocarbonyl)-6-(1-adamantanemethylaminocarbonyl)-2-n-butylbenzimidazole], for which the Ki on CCKA is 3160 nM; on CCKB receptor, 1000 nM.

In the case of `NC(=O)c1cc(NC(=O)[C@H](Cc2ccccc2)NC(=O)c2cc3[nH]cnc3cc2C(=O)NCC23CC4CC(CC(C4)C2)C3)cc(C(N)=O)c1` [Example 117, 5-(1S-(3,5-diaminocarbonylphenylaminocarbonyl)-2-phenylethylaminocarbonyl)-6-(1-adamantanemethylaminocarbonyl)-benzimidazole], the Ki on CCKA is 1580 nM; on CCKB receptor, 794 nM.

For the compound `O=C(NCC12CC3CC(CC(C3)C1)C2)c1cc2nc[nH]c2cc1C(=O)N[C@@H](Cc1ccccc1)C(=O)Nc1cc(CO)cc(CO)c1` [Example 119, 5-(1S-(3,5-dihydroxymethylphenylaminocarbonyl)-2-phenylethylaminocarbonyl)-6-(1-adamantanemethylaminocarbonyl)-benzimidazole], the “CCKA pKi” value on CCKA amounted to 5.6. For the same compound, the “CCKB pKi” value at CCKB receptor came out at 6.2.

Regarding `O=Cc1cc(C=O)cc(NC(=O)[C@H](Cc2ccccc2)NC(=O)c2cc3[nH]cnc3cc2C(=O)NCC23CC4CC(CC(C4)C2)C3)c1` [Example 120, 5-(1S-(3,5-hydrogencarbonylphenylaminocarbonyl)-2-phenylethylaminocarbonyl)-6-(1-adamantanemethylaminocarbonyl)-benzimidazole], the Ki was 1000 nM on CCKA and 631 nM at CCKB receptor.

In the case of `O=C(O)c1cc(NC(=O)[C@@H]2Cc3ccccc3CN2C(=O)c2cc3[nH]cnc3cc2C(=O)NCC23CC4CC(CC(C4)C2)C3)cc(C(=O)O)c1` [Example 129, 5-(3S-(3,5-dicarboxyphenylaminocarbonyl)-1,2,3,4-tetrahydroisoquinolino-2-carbonyl)-6-(1-adamantanemethylaminocarbonyl)-benzimidazole], the Ki is 7940 nM at CCKA and 200 nM at CCKB receptor.

For `O=C(O)c1cc(NC(=O)[C@H](Cc2ccccc2)NC(=O)c2cc3[nH]cnc3cc2C(=O)NCc2ccc3ccccc3c2)cc(C(=O)O)c1` [Example 130, 5-(1S-(3,5-dicarboxyphenylaminocarbonyl)-2-phenylethylaminocarbonyl)-6-(2-naphthalenenemethylaminocarbonyl)-benzimidazole], the Ki was 3980 nM on CCKA and 25.1 nM at CCKB receptor.
